Test [1] addresses His-tagged KRAS G12D protein (Homo sapiens, UniProt P01116, G12D). The test is described as follows: KRAS G12D TR-FRET Assay. Type of test: binding. In short, it runs like this:
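His-KRAS G12D (20 nM) was preincubated with titrated compound for 30 min at RT in HEPES pH 7.4 buffer with MgCl2, 10 μM GDP. Biotin-KRPep-2d (20 nM) was then added for 1 h, followed by Eu-anti-His/streptavidin-d2 for 1 h. The 665/615 nm TR-FRET ratio was fitted 4-parameter to give IC50.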
(In general: Time-resolved FRET reads energy transfer from a long-lived donor to a nearby acceptor.)

In test [2] the target is GDP-bound KRAS protein (aa 1-169), containing both G12D and C118A amino acid substitutions (Homo sapiens, UniProt P01116, C118A/G12D). Kind of test: KRAS G12D Coupled Nucleotide Exchange Assay. Type of test: biochemical. As for the experimental part:
KRAS G12D Coupled Nucleotide Exchange Assay
Following compound pre-incubation, purified SOS protein (aa 564-1049) and GTP (Roche 10106399001) were added to the assay wells and incubated for an additional 30 min. […] The assay plates were then read on a PerkinElmer EnVision Multilabel Reader, using AlphaScreen® technology, and data were analyzed using a 4-parameter logistic model to calculate IC50 values.

Test [3] concerns Phosphorylation of ERK1/2 in AsPC-1 cells. Kind of test: Phospho-ERK1/2 MSD Assay. The note with it: Homo sapiens, ASPC1, 2 h, read-out: 2 h p-ERK (AsPC-1 cells), IC50, AsPC-1 cells, 2 h compound treatment. Type of test: cell-based. The method, boiled down:
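Phospho-ERK1/2 was quantified by MSD whole-cell lysate immunoassay in RIPA lysates made with protease/phosphatase inhibitors. A 4-parameter logistic model gave IC50.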

Sequence of GDP-bound KRAS protein (aa 1-169), containing both G12D and C118A amino acid substitutions (P01116 1-169 isoform P01116-2 G12D/C118A): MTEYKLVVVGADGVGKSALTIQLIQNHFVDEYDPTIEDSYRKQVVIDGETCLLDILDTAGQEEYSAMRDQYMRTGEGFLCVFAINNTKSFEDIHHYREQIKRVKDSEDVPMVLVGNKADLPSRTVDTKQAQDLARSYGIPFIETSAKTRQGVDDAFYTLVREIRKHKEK
Sequence of His-tagged KRAS G12D protein (P01116 1-188 isoform P01116-2 G12D): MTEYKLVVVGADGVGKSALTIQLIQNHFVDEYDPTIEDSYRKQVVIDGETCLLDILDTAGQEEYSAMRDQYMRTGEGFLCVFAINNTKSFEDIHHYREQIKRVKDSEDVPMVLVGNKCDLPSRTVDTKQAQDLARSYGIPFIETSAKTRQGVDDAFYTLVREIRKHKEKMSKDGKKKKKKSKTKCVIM

One may read the IC50 as the concentration needed to halve the response being measured. On to `C/C=C\c1c(Cl)cc2[nH]ncc2c1-c1c(F)cc2c(N3CCC[C@](O)(CF)C3)nc(OC[C@@]34CCCN3C[C@H](F)C4)nc2c1F` (single isomer, unassigned) [Example 101], for which the results for the IC50 in test [1], in test [2] and in test [3] were 5 nM, 3 nM and 39 nM, respectively.
With `CCc1c(F)ccc2cc(O)cc(-c3c(F)cc4c(N5C[C@@H]6CO[C@@H](C6)C5)nc(OC[C@@]56CCCN5C[C@H](F)C6)nc4c3F)c12` (racemic) [Example 36, rac-4-(4-((1R,5S)-6-Oxa-3-azabicyclo[3.2.1]octan-3-yl)-6,8-difluoro-2-(((2R,7aS)-2-fluorotetrahydro-1H-pyrrolizin-7a(5H)-yl)methoxy)quinazolin-7-yl)-5-ethyl-6-fluoronaphthalen-2-ol], the IC50 was 20 nM in test [1], 12 nM in test [2] and 1080 nM in test [3].
Take `C[C@@]1(O)CCCN(c2nc(OC[C@@]34CCCN3C[C@H](F)C4)nc3c(F)c(-c4cc(O)cc(Cl)c4C4CC4)c(F)cc23)C1` [Example 6, (3R)-1-(7-(3-Chloro-2-cyclopropyl-5-hydroxyphenyl)-6,8-difluoro-2-(((2R,7aS)-2-fluorotetrahydro-1H-pyrrolizin-7a(5H)-yl)methoxy)quinazolin-4-yl)-3-methylpiperidin-3-ol]: the IC50 in test [1] was 5 nM; in test [2], 4 nM; in test [3], 123 nM.
With `CCc1c(F)ccc2cc(O)cc(-c3ccc4c(N5CCC[C@]6(CCO6)C5)nc(OC[C@@]56CCCN5C[C@H](F)C6)nc4c3F)c12` (single isomer, unassigned) [Example 76], the IC50 in test [1] came out at 5 nM; in test [2], 3 nM; in test [3], 9 nM.
In the case of `CCc1c(F)ccc2cc(O)cc(-c3c(F)cc4c(N5CCOCC(F)(F)C5)nc(OC[C@@]56CCCN5C[C@H](F)C6)nc4c3F)c12` [Example 37, 4-(4-(6,6-Difluoro-1,4-oxazepan-4-yl)-6,8-difluoro-2-(((2R,7aS)-2-fluorotetrahydro-1H-pyrrolizin-7a(5H)-yl)methoxy)quinazolin-7-yl)-5-ethyl-6-fluoronaphthalen-2-ol], the results for the IC50 in test [1], in test [2] and in test [3] were 11 nM, 10 nM and 391 nM, respectively.
As for `C[C@@H]1C[C@@H]1c1c(Cl)cc2[nH]ncc2c1-c1c(F)cc2c(N3CCC[C@]4(CNC(=O)O4)C3)nc(OC[C@@]34CCCN3C[C@H](F)C4)nc2c1F` (relative stereo) [Example 111, (5S)-7-(7-(6-Chloro-5~(2-methylcyclopropyl)-1H-indazol-4-yl)-6,8-difluoro-2-(((2R,7aS)-2-fluorotetrahydro-1H-pyrrolizin-7a(5H)-yl)methoxy)quinazolin-4-yl)-1-oxa-3,7-diazaspiro[4.5]decan-2-one 2,2,2-trifluoroacetate], the figures for the IC50 in test [1], in test [2] and in test [3] were 5 nM, 4 nM and 55 nM, respectively.
Take `CCc1c(F)ccc2cccc(-c3ccc4c(N5CCCC6(CNC(=O)O6)C5)nc(OC[C@@]56CCCN5C[C@H](F)C6)nc4c3F)c12` (stereo partly drawn) [Example 85, 7-(7-(8-Ethyl-7-fluoronaphthalen-1-yl)-8-fluoro-2-(((2R,7aS)-2-fluorotetrahydro-1H-pyrrolizin-7a(5H)-yl)methoxy)quinazolin-4-yl)-1-oxa-3,7-diazaspiro[4.5]decan-2-one]: the IC50 in test [1] was found to be 7 nM; in test [2], 7 nM; in test [3], 85 nM.
As to `C#Cc1c(F)ccc2cccc(-c3c(F)cc4c(N5CCC[C@@](C)(O)C5)nc(OC[C@@]56CCCN5C[C@H](F)C6)nc4c3F)c12` (single isomer, unassigned) [Example 67], the figures for the IC50 in test [1], in test [2] and in test [3] were 4 nM, 3 nM and 338 nM, respectively.
With `CCc1c(F)ccc2cc(O)cc(-c3ccc4c(N5CC6CC(O)C(C6)C5)nc(OC[C@@]56CCCN5C[C@H](F)C6)nc4c3F)c12` (single isomer, unassigned) [Example 15], the IC50 was determined as 4 nM in test [1], 4 nM in test [2] and 297 nM in test [3].
In the case of `CCc1c(F)ccc2cc(O)cc(-c3c(F)cc4c(N5CCC[C@]6(CCS(=O)(=O)C6)C5)nc(OC[C@@]56CCCN5C[C@H](F)C6)nc4c3F)c12` (single isomer, unassigned) [Example 94], the IC50 in test [1] was determined as 4 nM; in test [2], 4 nM; in test [3] it was 26 nM.
Take `CCc1c(F)ccc2cc(O)cc(-c3c(F)cc4c(N5CCC[C@]6(C5)C[C@@H](O)C6)nc(OC[C@@]56CCCN5C[C@H](F)C6)nc4c3F)c12` (single isomer, unassigned) [Example 91]: the IC50 in test [1] stood at 5 nM; in test [2], 3 nM; in test [3] it was 16 nM.
Turning to `CCc1c(F)ccc2cc(O)cc(-c3c(F)cc4c(N5CCC[C@]6(CNC(=O)O6)C5)nc(OC[C@@H]5C[C@@H](F)CN5C)nc4c3F)c12` (single isomer, unassigned) [Example 80], the IC50 turned out to be 4 nM in test [1], 2 nM in test [2] and 7 nM in test [3].
The matching figures for `CCc1c(F)ccc2cc(N)cc(-c3c(F)cc4c(N5CCC[C@]6(CNC(=O)O6)C5)nc(OC[C@@]56CCCN5C[C@H](F)C6)nc4c3F)c12` (single isomer, unassigned) [Example 97]: 4 nM, 2 nM and 29 nM.
`N#Cc1cc2c(N3CCCOCC3)nc(OC[C@@]34CCCN3C[C@H](F)C4)nc2c(F)c1-c1cc(O)cc2ccccc12` [Example 44, 8-Fluoro-2-(((2R,7aS)-2-fluorotetrahydro-1H-pyrrolizin-7a(5H)-yl)methoxy)-7-(3-hydroxynaphthalen-1-yl)-4-(1,4-oxazepan-4-yl)quinazoline-6-carbonitrile]: the IC50 came to 50 nM in test [1], 28 nM in test [2] and 1860 nM in test [3].
Turning to `Cc1cc2[nH]ncc2c(-c2c(F)cc3c(N4CCC[C@@](C)(O)C4)nc(OC[C@@]45CCCN4C[C@H](F)C5)nc3c2F)c1[C@H]1C[C@H]1C` (atropisomer, axis not shown; (aS)) [Example 121, (R)-1-((S)-6,8-Difluoro-2-(((2R,7aS)-2-fluorotetrahydro-1H-pyrrolizin-7a(5H)-yl)methoxy)-7-(6-methyl-5-((1S,2R)-2-methylcyclopropyl)-1H-indazol-4-yl)quinazolin-4-yl)-3-methylpiperidin-3-ol bis(2,2,2-trifluoroacetate)], the IC50 in test [1] is 9 nM; in test [2], 6 nM; in test [3], 156 nM.
With `CCc1c(F)ccc2cc(N)cc(-c3ccc4c(N5CCC[C@@](C)(O)C5)nc(OC[C@@]56CCCN5C[C@H](F)C6)nc4c3F)c12` [Example 74, (R)-1-(7-(3-Amino-8-ethyl-7-fluoronaphthalen-1-yl)-8-fluoro-2-(((2R,7aS)-2-fluorotetrahydro-1H-pyrrolizin-7a(5H)-yl)methoxy)quinazolin-4-yl)-3-methylpiperidin-3-ol], the IC50 in test [1] is 117 nM; in test [2], 10 nM; in test [3], 1050 nM.
`CCc1c(F)ccc2cc(O)cc(-c3ccc4c(N5CCCC6(CNC(=O)O6)C5)nc(OC[C@@]56CCCN5C[C@H](F)C6)nc4c3F)c12` (stereo partly drawn) [Example 54, 7-(7-(8-Ethyl-7-fluoro-3-hydroxynaphthalen-1-yl)-8-fluoro-2-(((2R,7aS)-2-fluorotetrahydro-1H-pyrrolizin-7a(5H)-yl)methoxy)quinazolin-4-yl)-1-oxa-3,7-diazaspiro[4.5]decan-2-one]: the IC50 in test [1] was 3 nM; in test [2] it was 4 nM; in test [3], 23 nM.
Regarding `CCc1c(F)ccc2cc(N)cc(-c3c(F)cc4c(N5CCCC(O)(C(F)F)C5)nc(OC[C@@]56CCCN5C[C@H](F)C6)nc4c3F)c12` (stereo partly drawn) [Example 68, 1-(7-(3-Amino-8-ethyl-7-fluoronaphthalen-1-yl)-6,8-difluoro-2-(((2R,7aS)-2-fluorotetrahydro-1H-pyrrolizin-7a(5H)-yl)methoxy)quinazolin-4-yl)-3-(difluoromethyl)piperidin-3-ol], the figures for the IC50 in test [1], in test [2] and in test [3] were 436 nM, 23 nM and 1930 nM, respectively.
For the compound `CCc1c(F)ccc2cc(O)cc(-c3c(N)cc4c(N5CCCOCC5)nc(OC[C@@]56CCCN5C[C@H](F)C6)nc4c3F)c12` [Example 46, 4-(6-Amino-8-fluoro-2-(((2R,7aS)-2-fluorotetrahydro-1H-pyrrolizin-7a(5H)-yl)methoxy)-4-(1,4-oxazepan-4-yl)quinazolin-7-yl)-5-ethyl-6-fluoronaphthalen-2-ol], the figures for the IC50 in test [1], in test [2] and in test [3] were 79 nM, 36 nM and 2570 nM, respectively.
The matching figures for `CCc1c(F)ccc2cc(O)cc(-c3c(F)cc4c(N5CCCC6(CCC(=O)O6)C5)nc(OC[C@@]56CCCN5C[C@H](F)C6)nc4c3F)c12` (stereo partly drawn) [Example 92, 7-(7-(8-Ethyl-7-fluoro-3-hydroxynaphthalen-1-yl)-6,8-difluoro-2-(((2R,7aS)-2-fluorotetrahydro-1H-pyrrolizin-7a(5H)-yl)methoxy)quinazolin-4-yl)-1-oxa-7-azaspiro[4.5]decan-2-one]: 7 nM, 5 nM and 28 nM.
